Consider five compounds from patent US7511059B2, “Thiazolidinones, their production and use as pharmaceutical agents” (Schering Ag, priority 2005, dated 2009).

In one experiment the target is T1, Recombinant human Plk-1 (Homo sapiens, UniProt P53350).
T1 construct: 6xHis; made in house; host or cells: baculovirus-infected Hi5 insect cells
The experiment can be described thus: PLK Enzyme Assay. The format is biochemical. The settings on record: biotinylated casein and 33P-γ-ATP as substrate, 90 minutes at room temperature, read-out: PLK-1 IC50 [nM] Inhibition. The method, then: Recombinant human Plk-1 (6× His) was purified from baculovirus-infected insect cells (Hi5).
10 ng of (produced in a recombinant manner and purified) PLK enzyme is incubated for 90 minutes at room temperature with biotinylated casein and 33P-γ-ATP as a substrate in a volume of 15 μl in 384-well Greiner small-volume microtiter plates (final concentrations in the buffer: 660 ng/ml of PLK; 0.7 lmol of casein, 0.5 gmol of ATP incl. 400 nCi/ml of 33P-γ-ATP; 10 mmol of MgCl2, 1 mmol of MnCl2; 0.01% NP40; 1 mmol of DTT, protease inhibitors; 0.1 mmol of Na2VO3 in 50 mmol of HEPES, pH 7.5). To complete the reaction, 5 μl of stop solution (500 μmol of ATP; 500 mmol of EDTA; 1% Triton X100; 100 mg/ml of streptavidin-coated SPA beads in PBS) is added. After the microtiter plate is sealed by film, the beads are sedimented by centrifuging (10 minutes, 1500 rpm). The incorporation of 33P-γ-ATP in casein is intended as a measurement of enzyme activity by β-counting.
Test substances are used in various concentrations (0 μmol, as well as in the range of 0.01-30 μmol). The final concentration of the solvent dimethyl sulfoxide is 1.5% in all batches.

For experiment [1], the system named is human MaTu breast tumor cells. The experiment can be described thus: Proliferation Assay. The format is cell-based. The settings on record: 96 h, incubated 4 days, crystal violet, read-out: Inhibition of the Tumor Cell Proliferation (MaTu) IC50. As to the method: Cultivated human MaTu breast tumor cells were flattened out at a density of 5000 cells/measuring point in a 96-well multititer plate in 200 μl of the corresponding growth medium. After 24 hours, the cells of one plate (zero-point plate) were colored with crystal violet (see below), while the medium of the other plates was replaced by fresh culture medium (200 μl), to which the test substances were added at various concentrations (0 μm, as well as in the range of 0.01-30 μm; the final concentration of the solvent dimethyl sulfoxide was 0.5%). The cells were incubated for 4 days in the presence of test substances. The cell proliferation was determined by coloring the cells with crystal violet: the cells were fixed by adding 20 μl/measuring point of an 11% glutaric aldehyde solution for 15 minutes at room temperature. After three washing cycles of the fixed cells with water, the plates were dried at room temperature. The cells were colored by adding 100 μl/measuring point of a 0. 1% crystal violet solution (pH was set at 3 by adding acetic acid). After three washing cycles of the colored cells with water, the plates were dried at room temperature. The dye was dissolved by adding 100 μl/measuring point of a 10% acetic acid solution. The extinction was determined by photometry at a wavelength of 595 nm. The change of cell growth, in percent, was calculated by standardization of the measured values to the extinction values of the zero-point plate (=0%) and the extinction of the untreated (0 μm) cells (=100%).

T1 sequence (P53350 whole entry): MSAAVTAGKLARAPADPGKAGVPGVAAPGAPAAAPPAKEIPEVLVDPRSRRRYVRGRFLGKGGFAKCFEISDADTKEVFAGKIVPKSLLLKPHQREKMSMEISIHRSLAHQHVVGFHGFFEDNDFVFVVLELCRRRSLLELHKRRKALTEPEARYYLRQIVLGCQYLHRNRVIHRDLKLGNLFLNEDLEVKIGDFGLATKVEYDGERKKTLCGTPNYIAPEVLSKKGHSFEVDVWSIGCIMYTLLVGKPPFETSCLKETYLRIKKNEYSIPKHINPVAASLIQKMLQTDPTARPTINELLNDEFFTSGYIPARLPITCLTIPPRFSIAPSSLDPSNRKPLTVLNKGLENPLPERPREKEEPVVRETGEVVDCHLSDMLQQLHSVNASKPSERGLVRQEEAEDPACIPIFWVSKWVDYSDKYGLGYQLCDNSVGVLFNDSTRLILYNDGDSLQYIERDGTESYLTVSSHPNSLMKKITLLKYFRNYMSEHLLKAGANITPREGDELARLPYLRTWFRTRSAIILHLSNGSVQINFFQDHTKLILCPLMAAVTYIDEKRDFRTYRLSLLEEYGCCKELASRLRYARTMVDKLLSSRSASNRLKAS

For `CCn1c(=C(C#N)C2=N[C@@H](C)CO2)sc(=CNc2cccc(NC(=O)C(C)(C)C)c2)c1=O` [Example 20, N-(3-{[2-[1-Cyano-1-((S)-4-methyl-4,5-dihydro-oxazol-2-yl)-meth-(E or Z)-ylidene]-3-ethyl-4-oxo-thiazolidin-(5-(E/Z))-ylidenemethyl]-amino-phenyl)-2,2-dimethyl-propionamide], the IC50 came to 140 nM on Recombinant human Plk-1 and 3200 nM in experiment [1].
The like results for `CCNc1cc(NC=c2sc(=C(C#N)C3=N[C@H]4CCC[C@H]4O3)n(CC)c2=O)ccn1` (mixture of isomers) [Example 38, [3-Ethyl-5-[1-(2-ethylamino-pyridin-4-ylamino)-meth-(E/Z)-ylidene]-4-oxo-thiazolidin-(2-(E or Z))-ylidene]-(3aS,6aR)-4,5,6,6a-tetrahydro-3aH-cyclopentaoxazol-2-yl-acetonitrile] were, in that order, 24 nM and 1200 nM.
In the same order, the values of `CCn1c(=C(C#N)C2=NC(C)(C)CO2)sc(=CNc2cccc(NC(=O)COCCOC)n2)c1=O` (mixture of isomers) [Example 37, N-(6-{[2-[1-Cyano-1-(4,4-dimethyl-4,5-dihydro-oxazol-2-yl)-meth-(E or Z)-ylidene]-3-ethyl-4-oxo-thiazolidin-(5-(E/Z))-ylidenemethyl]-amino}-pyridin-2-yl)-2-(2-methoxy-ethoxy)-acetamide] are 69 nM and 3600 nM.
In the same order, the values of `CCn1c(=C(C#N)C2=NCC(C)O2)sc(=CNc2cccc(NC(=O)C(C)(C)C)c2)c1=O` (mixture of isomers) [Example 15, N-(3-{[2-[1-Cyano-1-(5-methyl-4,5-dihydro-oxazol-2-yl)-meth-(E or Z)-ylidene]-3-ethyl-4-oxo-thiazolidin-(5-(E/Z))-ylidenemethyl]-amino}-phenyl)-2,2-dimethyl-propionamide] are 55 nM and 2100 nM.
Regarding `CCn1c(=C(C#N)C2=N[C@H]3CCC[C@H]3O2)sc(=CNc2cccc(NC(=O)C(C)(C)O)c2)c1=O` (mixture of isomers) [Example 31, N-(3-{[2-[(3aS,6aR)-1-Cyano-1-4,5,6,6a-tetrahydro-3aH-cyclopentaoxazol-2-yl-meth-(E or Z)-ylidene]-3-ethyl-4-oxo-thiazolidin-(5-(E/Z))-ylidenemethyl]-amino}-phenyl)-2-hydroxy-2-methyl-propionamide], the IC50 at Recombinant human Plk-1 was 53 nM; in experiment [1], 1200 nM.
